{
  "source": "paper PMC5446859",
  "about": "(2017)",
  "system": "DNAzyme-aptamer (DNA, aptamer) TGGGTAGGGCGGGTTGGGAAAGTTGGGCACGTGTTGTCTCTCTGTGTCTCGTGCCCTTCGCTAGGCCCAC",
  "assay": "peroxidase activity (TMB), blocker hybridization",
  "conditions": "120 mM NaCl, 5 mM KCl, 2.5 mM MgCl2; 10 mM Tris-HCl pH 8; hemin prevents hybridization of blocker; qualitative, indirect",
  "data": [
    {"smiles": "C=CC1=C(C)C2=Cc3c(C=C)c(C)c4[n]3[Fe]([Cl])[n]3c(c(C)c(CCC(=O)O)c3=CC3=NC(=C4)C(C)=C3CCC(=O)O)=CC1=N2", "values": [
      {"measurement": "binding", "result": "yes"}
    ]}
  ]
}
